Data taken from patent US4694006A, “Acyl- or acyloxymethyl-allopurinol prodrugs” (priority 1983, dated 1987).
≈ marks a conversion by molar mass, not a printed value. Where a name gives a salt, the structure may show the parent alone. Read-outs that look alike come from different tables or passages of the source.

What was measured:
[1] = physchem; conditions: water
Procedure: (§1) The water-solubility and lipophilicity of the allopurinol drugs
(§2) The apparent partition coefficients (P) for some allopurinol derivatives and allopurinol were measured using the widely used 1-octanol-water system. Similarly, the solubility of the derivatives in water or aqueous buffer solutions was determined.

[2] = In-vitro cleavage of allopurinol derivatives to allopurinol in 80% human plasma (pH 7.4) at 37° C; format: in vitro ADME; conditions: 80% plasma, pH 7.4, 37° C, read-out: Half-time (t0.5) of the conversion to allopurinol, 80% human plasma (converted)
Procedure: (§3) In-vitro cleavage of allopurinol derivatives
(§4) Solutions of various derivatives of allopurinol in aqueous buffer solutions or 80% human plasma solutions (pH 7.4) were kept at 37° C. The initial concentration of the derivatives was in the range 0.01-0.1 mg/ml. At various times an aliquot of the solutions was withdrawn and analyzed by HPLC for remaining derivative as well as for allopurinol. For the plasma solutions the aliquot withdrawn was deproteinized with ethanol or trichloroacetic acid and after centrifugation, the clear supernatant was injected on HPLC.
(§5) An HPLC method was used for the determination of allopurinol and its derivatives. In this method a reversed-phase LiChrosorb RP-8 column (250×4 mm) was eluated at ambient temperature with mixtures of methanol and 0.01M acetate buffer pH 4.5 or methanol and 0.03M phosphate buffer pH 7.0. The composition of the eluant was adjusted for each compound in order to provide an appropriate retention time. The flow rate was 1.2 ml/min and the column effluent was monitored spectrophotometrically at 252 nm or 274 nm. Quantitation of the compounds was done by measurement of peak heights.
(§6) The half-times of allopurinol formation from various derivatives at physiological conditions of pH and temperature are given in Table 2. It can be seen that in the presence of human plasma the rate of degradation is strongly accelerated, thus showing the susceptibility of the derivatives to undergo conversion into the parent active compound at conditions simiar to those prevailing in vivo.

[3] = In-vitro cleavage of allopurinol derivatives to allopurinol in pH 7.4 buffer at 37° C; format: physicochemical; conditions: read-out: Half-time (t0.5) of the conversion to allopurinol, pH 7.4 buffer (converted)
Procedure: as §3, §4, §5, §6

[4] = Procedure: as §1, §2

Row | Structure (SMILES) | solubility [1] [µg/mL] | half-life [2] [min] | half-life [3] [min] | log P ([4]; pH 8) | log P [4]
1 | CC(N)C(=O)OCn1ncc2c(=O)[nH]cnc21 (racemic) [1-(DL-Alanyloxymethyl)allopurinol (hydrobromide)] | > 500000 | 11 | 15 | – | –
2 | CCN(CC)C(C)C(=O)OCn1ncc2c(=O)[nH]cnc21 (racemic) [1-(DL-N,N-Diethylalanyloxymethyl)allopurinol (hydrochloride)] | > 400000 | 17 | 21 | 0.72 | –
3 | NC(Cc1ccccc1)C(=O)OCn1ncc2c(=O)[nH]cnc21 (racemic) [1-(DL-Phenylalanyloxymethyl)allopurinol, 1-(DL-Phenylalanyloxymethyl)allopurinol (hydrobromide)] | > 200000 | 9 | 40 | 0.40 | –
4 | NC(C(=O)OCn1ncc2c(=O)[nH]cnc21)c1ccccc1 (racemic) [1-(DL-Phenylglycyloxymethyl)allopurinol, 1-(DL-Phenylglycyloxymethyl)allopurinol (hydrobromide)] | > 200000 | 3 | 20 | -0.15 | –
5 | CC(N)C(=O)OCn1cc2c(=O)n(COC(=O)C(C)N)cnc2n1 (racemic) [2,5-bis(DL-Alanyloxymethyl)allopurinol, 2,5-bis-(DL-Alanyloxymethyl)allopurinol (dihydrobromide)] | – | < 1 | < 1 | – | –
6 | CC(C)(C)C(=O)OCn1cnc2c(cnn2COC(=O)C(C)(C)C)c1=O [1,5-bis(Pivaloyloxymethyl)allopurinol] | 20 (≈ 0.0549 mM) | – | – | – | 2.50
7 | O=C(c1ccccc1)n1ncc2c(=O)[nH]cnc21 [1-(Benzoyl)allopurinol] | – | 4 | 20 | – | 1.20
8 | O=C(OCn1ncc2c(=O)[nH]cnc21)c1ccccc1 [1-(Benzoyloxymethyl)allopurinol] | – | 4 | 14200 | – | 1.50
9 | CCCC(=O)OCn1ncc2c(=O)[nH]cnc21 [1-(Butyryloxymethyl)allopurinol] | – | 9 | 11600 | – | 0.60
10 | O=C(CCl)n1ncc2c(=O)[nH]cnc21 [1-(Chloroacetyl)allopurinol] | – | < 1 | < 1 | – | –
11 | CCOC(=O)OCn1ncc2c(O)ncnc21 [1-(Ethoxycarbonyloxymethyl)allopurinol] | – | 20 | – | – | 0.21
12 | NCC(=O)OCn1ncc2c(=O)[nH]cnc21 [1-(Glycyloxymethyl)allopurinol, 1-(Glycyloxymethyl)allopurinol (hydrochloride)] | > 500000 | 9 | 26 | – | –
13 | CN(C)CC(=O)n1ncc2c(=O)[nH]cnc21 [1-(N,N--Dimethylglycyl)allopurinol, 1-(N,N-Dimethylglycyl)allopurinol (hydrochloride)] | > 200000 | < 1 | 1.5 | – | –
14 | CCCCNC(=O)n1ncc2c(=O)[nH]cnc21 [1-(N--Butylcarbamoyl)allopurinol, 1-(N-Butylcarbamoyl)allopurinol] | – | 90 | – | – | –
15 | CC(C)(C)C(=O)OCn1ncc2c(O)ncnc21 [1-(Pivaloyloxymethyl)allopurinol] | 520 (≈ 2.08 mM) | – | – | – | 1.07
16 | CN(C)CCCC(=O)OCn1ncc2c(=O)[nH]cnc21 [1-[4-(N,N-Dimethylamino)butyryloxymethyl]allopurinol (hydrochloride)] | – | 140 | 145 | – | –
17 | CC(=O)OCn1cc2c(=O)n(COC(C)=O)cnc2n1 [2,5-bis(Acetoxymethyl)allopurinol] | 2900 (≈ 10.3 mM) | 51 | 900 | – | –
18 | CC(C)(C)C(=O)OCn1cc2c(=O)n(COC(=O)C(C)(C)C)cnc2n1 [2,5-bis(Pivaloyloxymethyl)allopurinol] | – | – | – | – | 2.34
19 | CC(C)(C)C(=O)OCn1cc2c(=O)[nH]cnc2n1 [2-(Pivaloyloxymethyl)allopurinol, 2-(pivaloyloxymethyl)allopurinol] | 1700 (≈ 6.79 mM) | – | – | – | 0.79
